Test results as given in publication PMC7463862, “Gene Cloning, Characterization, and Molecular Simulations of a Novel Recombinant Chitinase from Chitinibacter Tainanensis CT01 Appropriate for Chitin Enzymatic Hydrolysis” (Polymers, 2020).

Tested on: T1, chitinase 1198 Truncated
T1 construct: gene CT01GL001198; perhaps lacks disordered N-terminus (residues 1-201; approx. 63 kD proteolysis bands mentioned)
Experiment: p-nitrophenol release, absorbance at […] nm
Type: biochemical, Chitinibacter tainanensis
Conditions: standard assay 50 mM Tris-HCl pH 7.0, substrate 5-300 μM; temperature of kinetic run not stated

Km: 58.3 ± 11 µM
Structure (SMILES): CC(=O)N[C@H]1[C@H](Oc2ccc([N+](=O)[O-])cc2)O[C@H](CO)[C@@H](O[C@@H]2O[C@H](CO)[C@@H](O)[C@H](O)[C@H]2NC(C)=O)[C@@H]1O [pNP-(GlcNAc)2]
